Test: xn = mol fraction of the nth substance listed
Details: 101 kPa

CCCCCCO + CCCCCCCC[n+]1ccc2ccccc2c1.O=S(=O)([N-]S(=O)(=O)C(F)(F)F)C(F)(F)F
x1 = 1
Details	viscosity [mPa·s]
298.15 K	4.48
308.15 K	3.34
318.15 K	2.54
338.15 K	1.56

CCCCO + CCCCCCCC[n+]1ccc2ccccc2c1.O=S(=O)([N-]S(=O)(=O)C(F)(F)F)C(F)(F)F
x1 = 1
Details	viscosity [mPa·s]
298.15 K	2.54
308.15 K	1.98
318.15 K	1.57
328.15 K	1.26
338.15 K	1.03

OCCc1ccccc1 + CCCCCCCC[n+]1ccc2ccccc2c1.O=S(=O)([N-]S(=O)(=O)C(F)(F)F)C(F)(F)F
x1 = 1
Details	viscosity [mPa·s]
298.15 K	10.9
308.15 K	7.19
318.15 K	4.98
328.15 K	3.64
338.15 K	2.77

CCCCCCCC[n+]1ccc2ccccc2c1.O=S(=O)([N-]S(=O)(=O)C(F)(F)F)C(F)(F)F + CCCCCCO
viscosity [mPa·s]
Details	x2 = 0	x2 = 0.0854	x2 = 0.2857	x2 = 0.3673	x2 = 0.4981	x2 = 0.5825	x2 = 0.6854	x2 = 0.7913
298.15 K	369	287.4	136.9	95.1	58.56	42.65	28.18	17.78
308.15 K	191	153.3	78.6	56.09	35.72	26.62	18.08	11.64
318.15 K	108.7	89.2	–	35.66	23.49	17.79	12.37	8.11
328.15 K	67.9	56.19	32.57	24.14	16.33	12.59	8.87	5.88
338.15 K	44.8	37.54	22.77	17.2	11.88	9.24	–	4.44

CCCCCCCC[n+]1ccc2ccccc2c1.O=S(=O)([N-]S(=O)(=O)C(F)(F)F)C(F)(F)F + CCCCO
viscosity [mPa·s]
Details	x2 = 0	x2 = 0.0865	x2 = 0.1708	x2 = 0.3134	x2 = 0.4036	x2 = 0.5032	x2 = 0.6067	x2 = 0.6915	x2 = 0.7937	x2 = 0.9314
298.15 K	369	276	205	–	84.3	–	33.87	22.84	12.59	6.1
308.15 K	191	151.2	115.2	–	51.64	34.34	21.89	–	8.77	4.39
318.15 K	108.7	89.2	69.5	44.66	32.98	22.81	15.04	10.61	–	3.32
328.15 K	67.9	56.1	–	29.85	22.59	16.01	10.88	7.77	4.72	2.58
338.15 K	44.88	37.87	31.27	–	16.68	11.78	8.15	–	–	2.06

CCCCCCCC[n+]1ccc2ccccc2c1.O=S(=O)([N-]S(=O)(=O)C(F)(F)F)C(F)(F)F + OCCc1ccccc1
viscosity [mPa·s]
Details	x2 = 0	x2 = 0.0851	x2 = 0.1985	x2 = 0.3101	x2 = 0.3748	x2 = 0.4969	x2 = 0.5766	x2 = 0.695	x2 = 0.8076	x2 = 0.8956
298.15 K	369	305	219	153.5	126.8	79.7	–	40.23	26.6	–
308.15 K	191	161.9	119.7	86.7	72.7	47.31	36.67	–	16.96	12.09
318.15 K	108.7	93.8	–	53.23	–	30.33	–	16.64	11.53	8.35
328.15 K	67.9	–	45.88	35.03	–	20.59	–	–	8.23	5.99
338.15 K	44.8	–	31.17	24.37	–	14.79	12.01	–	6.09	4.45
